Earlier results in patent US20040259844A1 (priority 2000, published 2004).

System: retinal ganglion cells

CN1[C@@H]2CC[C@H]1C[C@@H](OC(=O)C(CO)c1ccccc1)C2 (stereo partly shown) [atropine]
effect on veratridine-increased survival of retinal ganglion cells: blocked
